Measured values reported in patent publication US5190741A, “Agents for diagnosing and treating melanomas, aromatic halogenated derivatives usable as such agents and their preparation” (Institut National de la Sante et de la Recherche Medicale …, priority 1989, dated 1993).
Like-named read-outs stand apart in the source and are kept apart here.

What was measured:
[1] = LD50 determination, i.v. (Karber and Behrens); details: mouse, in vivo, iv
Excerpt: (§1) The determination of the LD50 is made in the mouse after i.v. injection of the molecules according to the methodology described by Karber and Behrens.
(§2) 6 weeks old OF 1 male mice

[2] = test system: 6 weeks old OF 1 male mice; assay: LD50 determination, i.v. (Karber and Behrens); details: mouse, in vivo, iv
Excerpt: as §1, §2

[3] = test system: B16 murine melanoma; assay: Autoradiograms, C57 BL6 mice bearing B16; format: in vivo, mouse
Protocol: (§3) The autoradiograms are carried out in mice bearing grafted melanomas:
a. C57 BL6 bearing the B16 murine melanoma.
(§4) The animals bearing grafted tumors receive the labelled compounds in the form of the hydrochloride in saline solution (3.7 to 5×10^5 Bq/animal) in a caudal vein. At different time intervals after the administration of the compounds (from 15 minutes to 24 hours) the mice are anesthetized with ether and plunged into liquid nitrogen.
(§5) 30 μm sections, parallel to a sagittal plane, are prepared in a freezing microtome (TS 260, SLEE) according to the protocol described by Ullberg.

[4] = test system: Beu melanic human melanoma; assay: Autoradiograms, nu/nu SSCUP nude mice bearing Beu; format: in vivo
Protocol: as §3
b. nu/nu SSCUP nudes bearing heterotransplants of melanic (Beu) or amelanic (Dau) human melanomas).
as §4, §5

[5] = Tissue distribution in C57 BL6 mice bearing B16; format: in vivo, mouse; details: mouse, iv, 3 umol/animal
Protocol: (§6) The study of the tissue distribution of the ^125 I labelled compounds was performed in mice bearing grafted melanomas (cf. autoradiograms above). […] The animals are sacrificed at different time intervals of 1 to 24 hours after the injection. The blood is collected and the principal organs are excised. Aliquots are weighed and the radioactivity of the samples is measured in a […] 1191 counter (analytic tracer). The counting yield for iodine 125 is 60%. The results are expressed: as a percentage of the injected dose bound per g of tissue (% ID/g); in the form of the ratios [formula] This ratio reflects more precisely the selectivity of a molecule for an organ (tables 2, 4, 6, 8, 10 and 12).

[6] = test system: B16 murine melanoma; assay: Tissue distribution in C57 BL6 mice bearing B16; format: in vivo, mouse; details: mouse, in vivo
Protocol: as §6

[7] = test system: B16 melanoma; assay: Scintillation imaging, C57 BL6 mice bearing B16; format: in vivo, mouse; details: ^123 I label
Excerpt: (§7) The mice bearing grafted tumors are anesthetized by the i.p. injection of sodium pentobarbital 1/5 and immobilized under a scintillation camera (Gammatome II, CGR) equipped with a pinhole 3-360 collimator, sensitivity 3.2 10^-4.
C57 BL6 bearing B16 melanomas at different stages of development.
(§8) The scanning observations have also been carried out after the injection of B into the following mice:
C57 BL6 bearing the B16 melanoma

[8] = test system: Beu melanic human melanoma; assay: Scintillation imaging, nu/nu SSCUP nude mice bearing Beu; format: in vivo; details: ^123 I label
Excerpt: as §7
nu/nu SSCUP nudes bearing human melanomas Beu and Dau.
as §8
nu/nu SSCUP nudes bearing the Beu heterotransplant.

[9] = intestine, read-out: intestine % ID/g
[10] = kidney, read-out: kidney % ID/g
[11] = muscle, read-out: muscle % ID/g
[12] = pancreas, read-out: pancreas % ID/g
[13] = plasma, read-out: plasma % ID/g
[14] = spleen, read-out: spleen % ID/g
[15] = stomach, read-out: stomach % ID/g
[16] = submaxillary glands, read-out: submaxillary glands % ID/g

CCN(CC)CCNC(=O)c1ccc(I)cc1 [Derivative A, N-(2-diethylaminoethyl) 4-iodo benzamide]
LD50 [1]: 125 mg/kg | LD 0 [2]: 75 mg/kg | LD 100 [2]: 150 mg/kg | darkening of the film at the tumor ([3]; 1 to 4 h after i.v.): considerable and inhomogeneous darkening of the film | tumor visibility on autoradiogram ([3]; 24 h after i.v.): still visible | darkening of the film at the tumor ([4]; 1 to 4 h after i.v.): Identical images | tumor visibility on autoradiogram ([4]; 24 h after i.v.): we can no longer see darkening of the film | tissue uptake at 1 h ([5]; blood, read-out: blood % ID/g): 1.04 %ID/g | tissue uptake at 2 h ([5]; blood, read-out: blood % ID/g): 0.74 %ID/g | tissue uptake at 4 h ([5]; blood, read-out: blood % ID/g): 0.54 %ID/g | tissue uptake at 6 h ([5]; blood, 6 h, read-out: blood % ID/g): 0.21 %ID/g | tissue uptake at 24 h ([5]; blood, read-out: blood % ID/g): 0.022 %ID/g | tissue uptake at 8 h ([5]; blood, 8 h, read-out: blood % ID/g): 0.34 %ID/g | tissue uptake at 12 h ([5]; blood, read-out: blood % ID/g): 0.09 %ID/g | tissue uptake at 1 h ([5]; brain, read-out: brain % ID/g): 2.67 %ID/g | tissue uptake at 2 h ([5]; brain, read-out: brain % ID/g): 1.4 %ID/g | tissue uptake at 4 h ([5]; brain, read-out: brain % ID/g): 0.7 %ID/g | tissue uptake at 6 h ([5]; brain, 6 h, read-out: brain % ID/g): 0.32 %ID/g | tissue uptake at 24 h ([5]; brain, read-out: brain % ID/g): 0.005 %ID/g | tissue uptake at 8 h ([5]; brain, 8 h, read-out: brain % ID/g): 0.18 %ID/g | tissue uptake at 12 h ([5]; brain, read-out: brain % ID/g): 0.04 %ID/g | tissue uptake at 1 h ([5]; eye, read-out: eye % ID/g): 13.6 %ID/g | tissue uptake at 2 h ([5]; eye, read-out: eye % ID/g): 13 %ID/g | tissue uptake at 4 h ([5]; eye, read-out: eye % ID/g): 12.4 %ID/g | tissue uptake at 6 h ([5]; eye, 6 h, read-out: eye % ID/g): 12.1 %ID/g | tissue uptake at 24 h ([5]; eye, read-out: eye % ID/g): 6.65 %ID/g | tissue uptake at 8 h ([5]; eye, 8 h, read-out: eye % ID/g): 8.07 %ID/g | tissue uptake at 12 h ([5]; eye, read-out: eye % ID/g): 8.49 %ID/g | tissue uptake at 1 h [5, 9]: 5.22 %ID/g | tissue uptake at 2 h [5, 9]: 3.94 %ID/g | tissue uptake at 4 h [5, 9]: 2.8 %ID/g | tissue uptake at 6 h ([5]; intestine, 6 h, read-out: intestine % ID/g): 0.75 %ID/g | tissue uptake at 8 h ([5]; intestine, 8 h, read-out: intestine % ID/g): 0.71 %ID/g | tissue uptake at 12 h [5, 9]: 0.14 %ID/g | tissue uptake at 24 h [5, 9]: 0.02 %ID/g | tissue uptake at 1 h [5, 10]: 8.56 %ID/g | tissue uptake at 2 h [5, 10]: 5.93 %ID/g | tissue uptake at 4 h [5, 10]: 3.67 %ID/g | tissue uptake at 6 h ([5]; kidney, 6 h, read-out: kidney % ID/g): 1.1 %ID/g | tissue uptake at 24 h [5, 10]: 0.07 %ID/g | tissue uptake at 8 h ([5]; kidney, 8 h, read-out: kidney % ID/g): 0.84 %ID/g | tissue uptake at 12 h [5, 10]: 0.19 %ID/g | tissue uptake at 1 h ([5]; liver, read-out: liver % ID/g): 6.04 %ID/g | tissue uptake at 2 h ([5]; liver, read-out: liver % ID/g): 4.02 %ID/g | tissue uptake at 4 h ([5]; liver, read-out: liver % ID/g): 2.46 %ID/g | tissue uptake at 6 h ([5]; liver, 6 h, read-out: liver % ID/g): 0.95 %ID/g | tissue uptake at 24 h ([5]; liver, read-out: liver % ID/g): 0.16 %ID/g | tissue uptake at 8 h ([5]; liver, 8 h, read-out: liver % ID/g): 0.8 %ID/g | tissue uptake at 12 h ([5]; liver, read-out: liver % ID/g): 0.25 %ID/g | tissue uptake at 1 h ([5]; lung, read-out: lungs % ID/g): 11 %ID/g | tissue uptake at 2 h ([5]; lung, read-out: lungs % ID/g): 6.12 %ID/g | tissue uptake at 4 h ([5]; lung, read-out: lungs % ID/g): 4.29 %ID/g | tissue uptake at 6 h ([5]; lung, 6 h, read-out: lungs % ID/g): 1.99 %ID/g | tissue uptake at 8 h ([5]; lung, 8 h, read-out: lungs % ID/g): 1.11 %ID/g | tissue uptake at 12 h ([5]; lung, read-out: lungs % ID/g): 0.2 %ID/g | tissue uptake at 24 h ([5]; lung, read-out: lungs % ID/g): 0.05 %ID/g | tissue uptake at 6 h ([5]; lung, as from the 6th hour, mice bearing melanic melanomas, read-out: pulmonary binding): < 1 %ID/g | tissue uptake at 1 h [5, 11]: 1.55 %ID/g | tissue uptake at 2 h [5, 11]: 1.13 %ID/g | tissue uptake at 4 h [5, 11]: 0.66 %ID/g | tissue uptake at 6 h ([5]; muscle, 6 h, read-out: muscle % ID/g): 0.19 %ID/g | tissue uptake at 24 h [5, 11]: 0.009 %ID/g | tissue uptake at 8 h ([5]; muscle, 8 h, read-out: muscle % ID/g): 0.14 %ID/g | tissue uptake at 12 h [5, 11]: 0.03 %ID/g | tissue uptake at 1 h [5, 12]: 5.34 %ID/g | tissue uptake at 2 h [5, 12]: 3.42 %ID/g | tissue uptake at 4 h [5, 12]: 2.01 %ID/g | tissue uptake at 6 h ([5]; pancreas, 6 h, read-out: pancreas % ID/g): 0.55 %ID/g | tissue uptake at 8 h ([5]; pancreas, 8 h, read-out: pancreas % ID/g): 0.41 %ID/g | tissue uptake at 12 h [5, 12]: 0.13 %ID/g | tissue uptake at 24 h [5, 12]: 0.04 %ID/g | tissue uptake at 1 h [5, 13]: 0.82 %ID/g | tissue uptake at 2 h [5, 13]: 0.55 %ID/g | tissue uptake at 4 h [5, 13]: 0.45 %ID/g | tissue uptake at 6 h ([5]; plasma, 6 h, read-out: plasma % ID/g): 0.21 %ID/g | tissue uptake at 24 h [5, 13]: 0.024 %ID/g | tissue uptake at 8 h ([5]; plasma, 8 h, read-out: plasma % ID/g): 0.38 %ID/g | tissue uptake at 12 h [5, 13]: 0.11 %ID/g | tissue uptake at 1 h [5, 14]: 5.91 %ID/g | tissue uptake at 2 h [5, 14]: 2.94 %ID/g | tissue uptake at 4 h [5, 14]: 1.36 %ID/g | tissue uptake at 6 h ([5]; spleen, 6 h, read-out: spleen % ID/g): 0.56 %ID/g | tissue uptake at 8 h ([5]; spleen, 8 h, read-out: spleen % ID/g): 0.46 %ID/g | tissue uptake at 12 h [5, 14]: 0.16 %ID/g | tissue uptake at 24 h [5, 14]: 0.02 %ID/g | tissue uptake at 1 h [5, 15]: 6.03 %ID/g | tissue uptake at 2 h [5, 15]: 3.87 %ID/g | tissue uptake at 4 h [5, 15]: 2.35 %ID/g | tissue uptake at 6 h ([5]; stomach, 6 h, read-out: stomach % ID/g): 1.14 %ID/g | tissue uptake at 8 h ([5]; stomach, 8 h, read-out: stomach % ID/g): 1.65 %ID/g | tissue uptake at 12 h [5, 15]: 0.19 %ID/g | tissue uptake at 24 h [5, 15]: 0.07 %ID/g | tissue uptake at 1 h [5, 16]: 6.06 %ID/g | tissue uptake at 2 h [5, 16]: 3.6 %ID/g | tissue uptake at 4 h [5, 16]: 3.68 %ID/g | tissue uptake at 6 h ([5]; submaxillary glands, 6 h, read-out: submaxillary glands % ID/g): 1.12 %ID/g | tissue uptake at 8 h ([5]; submaxillary glands, 8 h, read-out: submaxillary glands % ID/g): 0.98 %ID/g | tissue uptake at 12 h [5, 16]: 0.44 %ID/g | tissue uptake at 24 h [5, 16]: 0.09 %ID/g | tissue uptake at 1 h ([5]; tumor, read-out: tumor % ID/g): 6.75 %ID/g | tissue uptake at 2 h ([5]; tumor, read-out: tumor % ID/g): 6.04 %ID/g | tissue uptake at 4 h ([5]; tumor, read-out: tumor % ID/g): 4.82 %ID/g | tissue uptake at 6 h ([5]; tumor, 6 h, read-out: tumor % ID/g): 3.53 %ID/g | tissue uptake at 24 h ([5]; tumor, read-out: tumor % ID/g): 0.79 %ID/g | tissue uptake at 8 h ([5]; tumor, up to 8 hours, B16, read-out: intratumoral concentration): > 1 %ID/g | tissue uptake at 8 h ([5]; tumor, 8 h, read-out: tumor % ID/g): 3.42 %ID/g | tissue uptake at 12 h ([5]; tumor, read-out: tumor % ID/g): 1.01 %ID/g | marker of the B16 murine melanoma [6]: markers of the B16 murine melanoma | images compared with ^125 I-A [7]: identical images | images compared with ^125 I-A [8]: identical images
